The target in this experiment is T1, CFTR (Homo sapiens, UniProt P13569).
T1 construct: results in the phosphorylation and opening of CFTR anion channels; host or cells: Human colonic T84 cells
Kind of experiment: T84 assay (FLIPR membrane potential dye, forskolin/IBMX-stimulated CFTR channel activity). As to conditions: Human colonic T84 cells; 10 μM forskolin + 100 μM IBMX; average of at least 2 runs unless marked n = 1. Type of experiment: cell-based. The procedure:
(§1) For example, Human colonic T84 cells can be acquired from the European Collection of Cell Cultures (ECACC) and grown in standard culture conditions as described by the supplier. On the day before assay 25,000 T84 cells per well are plated into standard black walled, clear bottom 384-well assay plates in standard growth medium consisting of DMEM:F12 with 10% FBS and incubated overnight. On the day of the assay the plates are washed using a standard assay buffer (HBSS with 10 mM Hepes) and incubated for 15 minutes in serum free cell culture medium before the addition of a commercially available membrane potential sensitive fluorescent dye (FLIPR Red membrane potential dye, Molecular Devices Corporation). T84 cells are incubated with the FLIPR Red membrane potential dye for 45 minutes in the presence and absence of test compound before being transferred to a commercially available fluorescence imaging plate reader (FLIPR384, Molecular Devices Corporation). Fluorescence levels are monitored continuously every second for 150 seconds; after an initial 10 second baseline, CFTR channel activity is stimulated through the addition of 10 μM forskolin in the presence of 100 μM of the phosphodiesterase inhibitor iso-butylmethylxanthine (IBMX). Addition of the forskolin leads to the activation of intracellular adenylyl cylase 1, elevating cAMP levels and results in the phosphorylation and opening of CFTR anion channels. CFTR channel opening causes chloride ion efflux and subsequent depolarization of the cells, which is measured by an increase in fluorescence. CFTR inhibitor compounds prevent cell depolarization and the associated increase in fluorescence.
as §1, with “Human colonic” for “For example, Human colonic”, “T84 cells are acquired from” for “T84 cells can be acquired from”, “(ECACC) and are grown in” for “(ECACC) and grown in”

T1 sequence (P13569 whole entry): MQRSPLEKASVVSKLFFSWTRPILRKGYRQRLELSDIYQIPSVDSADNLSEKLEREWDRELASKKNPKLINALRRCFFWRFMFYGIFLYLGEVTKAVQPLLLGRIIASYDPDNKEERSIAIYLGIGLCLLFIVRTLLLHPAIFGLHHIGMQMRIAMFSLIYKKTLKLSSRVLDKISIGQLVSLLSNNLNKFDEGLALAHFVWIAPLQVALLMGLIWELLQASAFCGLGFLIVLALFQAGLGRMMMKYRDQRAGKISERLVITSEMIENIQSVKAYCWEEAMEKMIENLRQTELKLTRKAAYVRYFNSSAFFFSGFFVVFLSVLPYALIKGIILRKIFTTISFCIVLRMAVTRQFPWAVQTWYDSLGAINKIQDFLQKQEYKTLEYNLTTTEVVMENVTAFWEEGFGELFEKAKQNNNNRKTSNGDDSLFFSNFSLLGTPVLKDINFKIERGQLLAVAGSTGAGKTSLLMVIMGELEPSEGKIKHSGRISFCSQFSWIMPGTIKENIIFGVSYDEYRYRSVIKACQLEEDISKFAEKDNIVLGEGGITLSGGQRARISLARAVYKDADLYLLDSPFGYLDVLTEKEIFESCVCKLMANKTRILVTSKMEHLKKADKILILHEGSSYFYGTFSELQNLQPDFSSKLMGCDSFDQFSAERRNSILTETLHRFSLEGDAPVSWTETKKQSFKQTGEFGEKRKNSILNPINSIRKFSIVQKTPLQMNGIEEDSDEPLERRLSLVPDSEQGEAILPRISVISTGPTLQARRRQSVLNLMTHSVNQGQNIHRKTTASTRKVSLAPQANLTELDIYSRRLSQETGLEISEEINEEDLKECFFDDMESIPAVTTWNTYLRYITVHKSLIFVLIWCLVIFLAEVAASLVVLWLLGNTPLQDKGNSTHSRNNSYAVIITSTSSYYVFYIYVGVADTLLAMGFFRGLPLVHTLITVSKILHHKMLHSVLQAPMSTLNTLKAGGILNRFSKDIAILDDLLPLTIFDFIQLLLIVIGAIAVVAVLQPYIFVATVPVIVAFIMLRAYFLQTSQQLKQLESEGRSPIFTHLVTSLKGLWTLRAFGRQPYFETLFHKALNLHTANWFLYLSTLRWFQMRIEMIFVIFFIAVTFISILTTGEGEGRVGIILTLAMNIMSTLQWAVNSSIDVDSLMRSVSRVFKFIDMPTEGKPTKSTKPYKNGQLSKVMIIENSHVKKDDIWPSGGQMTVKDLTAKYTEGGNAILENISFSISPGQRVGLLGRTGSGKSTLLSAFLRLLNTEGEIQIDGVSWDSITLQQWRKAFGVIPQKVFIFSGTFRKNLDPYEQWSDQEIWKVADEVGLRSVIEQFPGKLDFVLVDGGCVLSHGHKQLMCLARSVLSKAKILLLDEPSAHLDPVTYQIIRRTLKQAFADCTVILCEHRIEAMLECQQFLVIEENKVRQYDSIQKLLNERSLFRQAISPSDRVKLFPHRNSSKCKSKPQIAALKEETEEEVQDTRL

As a reminder, the IC50 is the point on the concentration scale where inhibition reaches its midpoint. Consider `CN(Cc1ccc(C(C)(C)C)cc1)C(=O)c1cc(-c2cc(Cl)c(O)c(Cl)c2)n[nH]1` [Compound 8, N-(4-tert-butylbenzyl)-3-(3,5-dichloro-4-hydroxyphenyl)-N-methyl-1H-pyrazole-5-carboxamide], for which the IC50 is 16.5 µM.

Take `CN(Cc1ccc(Oc2ccccn2)cc1)C(=O)c1cc(-c2cc(Cl)c(O)c(Cl)c2)n[nH]1` [Compound 7, 3-(3,5-dichloro-4-hydroxyphenyl)-N-methyl-N-(4-(pyridin-2-yloxy)benzyl)-1H-pyrazole-5-carboxamide]: the IC50 turned out to be 21 µM.

Take `CN(Cc1ccc(Oc2ccccc2)cc1)C(=O)c1cc(-c2cc(Cl)c(O)c(Cl)c2)n[nH]1` [Compound 4, 3-(3,5-dichloro-4-hydroxyphenyl)-N-methyl-N-(4-phenoxybenzyl)-1H-pyrazole-5-carboxamide]: the IC50 worked out at 21.1 µM.

On to `O=C(NCCC(c1ccccc1)c1ccccc1)c1cc(-c2cc(Cl)c(O)c(Cl)c2)n[nH]1` [Compound 3, 3-(3,5-dichloro-4-hydroxyphenyl)-N-(3,3-diphenylpropyl)-1H-pyrazole-5-carboxamide], for which the IC50 came to 3.46 µM.

For the compound `O=C(c1cc(-c2cc(Cl)c(O)c(Cl)c2)n[nH]1)N1CCN(c2cccc(C(F)(F)F)c2)CC1` [Compound 10, (3-(3,5-dichloro-4-hydroxyphenyl)-1H-pyrazol-5-yl)(4-(3-(trifluoromethyl)phenyl)piperazin-1-yl)methanone], the IC50 stood at 29.6 µM.

With `O=C(NCc1ccc(F)c(C(F)(F)F)c1)c1cc(-c2cc(Cl)c(O)c(Cl)c2)n[nH]1` [Compound 9, 3-(3,5-dichloro-4-hydroxyphenyl)-N-(4-fluoro-3-(trifluoromethyl)benzyl)-1H-pyrazole-5-carboxamide], the half-inhibitory concentration (IC50) was determined as 29.8 µM.

In the case of `CC(C)(C)c1ccc(CNC(=O)c2cc(-c3cc(Cl)c(O)c(Cl)c3)n[nH]2)cc1` [Compound 6, N-(4-tert-butylbenzyl)-3-(3,5-dichloro-4-hydroxyphenyl)-1H-pyrazole-5-carboxamide], the half-inhibitory concentration (IC50) came to 17.4 µM.

Regarding `O=C(NCc1ccc(Cl)c(Cl)c1)c1cc(-c2cc(Cl)c(O)c(Cl)c2)n[nH]1` [Compound 5, 3-(3,5-dichloro-4-hydroxyphenyl)-N-(3,4-dichlorobenzyl)-1H-pyrazole-5-carboxamide], the IC50 is 29.5 µM.

Turning to `O=C(NCc1cccc(OC(F)(F)F)c1)c1cc(-c2cc(Cl)c(O)c(Cl)c2)n[nH]1` [Compound 2, 3-(3,5-dichloro-4-hydroxyphenyl)-N-(3-(trifluoromethoxy)benzyl)-1H-pyrazole-5-carboxamide], the IC50 is 18.7 µM.

Consider `CN(Cc1cccc(C(F)(F)F)c1)C(=O)c1cc(-c2cc(Cl)c(O)c(Cl)c2)n[nH]1` [Compound 1, 3-(3,5-dichloro-4-hydroxyphenyl)-N-methyl-N-(3-(trifluoromethyl)benzyl)-1H-pyrazole-5-carboxamide], for which the IC50 is 9.06 µM.

The record behind these values is patent publication US8343976B2, “Compounds, compositions and methods comprising pyrazole derivatives” (Institute for OneWorld Health, priority 2009, dated 2013).
